Series [1] is described as follows: Selectivity index, ratio of IC50 for African green monkey Vero cells to IC50 for antiplasmodial activity against CQ-resistant Plasmodium falciparum W2. The note with it: read-out: Ratio IC50. Type of series: toxicity.
A further series concerns Vero. Put plainly: Cytotoxicity against African green monkey Vero cells. The series is classed as cell-based. The following applies: Chlorocebus sabaeus.
Series [2] relates to Plasmodium falciparum. Put plainly: Antiplasmodial activity against CQ-resistant Plasmodium falciparum W2. The series is classed as functional, organism-based.
The test system of series [3] is Plasmodium falciparum. Put plainly: Antimalarial activity against Plasmodium falciparum 7G8. Type of series: functional, organism-based.
The test system of series [4] is Heme. The series is described as follows: Binding affinity to monomeric heme in MES buffer at pH 5.6.
Series [5] relates to Heme. Put plainly: Binding affinity to monomeric heme in HEPES buffer at pH 7.4.
For series [6], the system named is Plasmodium falciparum. The series is described as follows: Antimalarial activity against Plasmodium falciparum RKL9 infected in human RBC assessed as reduction in parasite growth incubated for 24 hrs by giemsa staining based assay. The series is classed as functional, organism-based. The note with it: RKL9, Erythrocyte.

Broadly, the IC50 is the concentration needed to halve the response being measured. Regarding `O=C(NN1C(=O)c2ccc(C(=O)OCCNc3ccnc4cc(Cl)ccc34)cc2C1=O)c1ccncc1`, the selectivity ratio in series [1] turned out to be 239. In addition, the IC50 was over 194000 nM in the series on Vero and 812 nM in the series with Plasmodium falciparum [2].
Turning to `O=C(NNC(=O)c1ccc2c(c1)C(=O)N(CCCCCCNc1ccnc3cc(Cl)ccc13)C2=O)c1ccncc1`, the selectivity ratio in series [1] turned out to be 12.7. In the series on Plasmodium falciparum [2], this compound returned an IC50 of over 10000 nM.
Turning to `O=C(NN1C(=O)c2ccc(C(=O)OCCCNc3ccnc4cc(Cl)ccc34)cc2C1=O)c1ccncc1`, in series [1], the selectivity ratio worked out at 50. The IC50 with Vero is over 189000 nM; with Plasmodium falciparum [2] it was 3770 nM.
Take `O=C(NNC(=O)c1ccc2c(c1)C(=O)N(CCCCCCCCNc1ccnc3cc(Cl)ccc13)C2=O)c1ccncc1`: the selectivity ratio in series [1] stood at 2970. The compound also registered an IC50 with Plasmodium falciparum [2] of 43.3 nM.
On to `O=C(NCCCNc1ccnc2cc(Cl)ccc12)c1ccc2c(c1)C(=O)N(NC(=O)c1ccncc1)C2=O`, for which the selectivity ratio in series [1] came out at 366. This compound also showed an IC50 with Plasmodium falciparum [2] of 439 nM.
As to `O=C(CN1C(=O)c2ccccc2C1=O)NNC(=O)c1ccncc1`, in series [1], the selectivity ratio is 30.8. Also, the results for the IC50 with Vero and in the series on Plasmodium falciparum [2] were over 308000 nM and over 10000 nM, respectively.
Take `O=C(NCCNc1ccnc2cc(Cl)ccc12)c1ccc2c(c1)C(=O)N(NC(=O)c1ccncc1)C2=O`: in series [1], the selectivity ratio came out at 144. The IC50 in the series on Plasmodium falciparum [2] was 445 nM.
On to `O=C(NN1C(=O)c2ccc(N3CCN(c4ccnc5cc(Cl)ccc45)CC3)cc2C1=O)c1ccncc1`, for which, in series [1], the selectivity ratio was found to be 338. Also, the IC50 with Vero is over 438000 nM; in the series with Plasmodium falciparum [2], 1300 nM.
As to `O=C(NNC(=O)c1ccc2c(c1)C(=O)N(CCCNc1ccnc3cc(Cl)ccc13)C2=O)c1ccncc1`, the selectivity ratio in series [1] is 289. In the series with Plasmodium falciparum [2], this compound yielded an IC50 of 412 nM.
The compound `O=C(N/N=C/c1c(O)ccc2ccccc12)c1ccncc1` returned an IC50 with Plasmodium falciparum [3] of 42.2 nM.
As for `O=C(NCCCCNc1ccnc2cc(Cl)ccc12)c1ccc2c(c1)C(=O)N(NC(=O)c1ccncc1)C2=O`, the selectivity ratio in series [1] worked out at 58.1. This compound registered a half-inhibitory concentration (IC50) in the series on Plasmodium falciparum [2] of 253 nM.
Regarding `O=C(O)c1ccc2c(c1)C(=O)N(CCCCCCCCNc1ccnc3cc(Cl)ccc13)C2=O`, the selectivity ratio in series [1] was found to be 4820. Moreover, the IC50 with Vero was over 208000 nM; with Plasmodium falciparum [2], 43.2 nM.
Regarding `O=C(NCCCCCCNc1ccnc2cc(Cl)ccc12)c1ccc2c(c1)C(=O)N(NC(=O)c1ccncc1)C2=O`, the selectivity ratio in series [1] came out at 2900. Besides, the log K in the series on Heme [4] was found to be 6.39; with Heme [5], 6.66. Moreover, the IC50 in the series with Plasmodium falciparum [2] came to 11.5 nM.
With `COc1ccc(/C=N/NC(=O)c2ccncc2)cc1O`, in the series with Plasmodium falciparum [6], the half-inhibitory concentration (IC50) turned out to be 40.2 nM.
As to `O=C(N/N=C/c1ccc(O)cc1)c1ccncc1`, the IC50 in the series on Plasmodium falciparum [6] was determined as 42.2 nM.
Turning to `O=C(O)c1ccc2c(c1)C(=O)N(CCCNc1ccnc3cc(Cl)ccc13)C2=O`, the selectivity ratio in series [1] amounted to 487. In the series with Plasmodium falciparum [2], this compound registered a concentration for half-maximal inhibition (IC50) of 496 nM.
Take `O=C(N/N=C/C=C/c1ccccc1)c1ccncc1`: the IC50 in the series on Plasmodium falciparum [6] was found to be 66 nM.
For the compound `O=C(O)c1ccc2c(c1)C(=O)N(CCCCCCNc1ccnc3cc(Cl)ccc13)C2=O`, the selectivity ratio in series [1] was found to be 805. In addition, half-maximal inhibition in the series on Plasmodium falciparum [2] (IC50) required 30.2 nM.
On the same counts, the results for `O=C(O)c1ccc2c(c1)C(=O)N(CCCCNc1ccnc3cc(Cl)ccc13)C2=O` are 789 and 50.8 nM.
Consider `O=C(O)c1ccc2c(c1)C(=O)N(CCNc1ccnc3cc(Cl)ccc13)C2=O`, for which the selectivity ratio in series [1] came to 601. Also, the IC50 was over 253000 nM in the series with Vero and 424 nM with Plasmodium falciparum [2].
The matching figures for `O=C(NNC(=O)c1ccc(N2C(=O)c3ccccc3C2=O)cc1)c1ccncc1`: 25.8, over 259000 nM and over 10000 nM.
Take `O=C(NNC(=O)c1ccc2c(c1)C(=O)N(CCNc1ccnc3cc(Cl)ccc13)C2=O)c1ccncc1`: the selectivity ratio in series [1] stood at 138. The IC50 in the series with Vero is over 194000 nM; in the series on Plasmodium falciparum [2], 1400 nM.
On to `O=C(NCCCCCCCCNc1ccnc2cc(Cl)ccc12)c1ccc2c(c1)C(=O)N(NC(=O)c1ccncc1)C2=O`, for which the selectivity ratio in series [1] was found to be 1790. Further, the IC50 in the series on Vero was over 167000 nM; in the series on Plasmodium falciparum [2], 93.5 nM.
With `O=C(NNC(=O)c1ccc2c(c1)C(=O)N(CCCCNc1ccnc3cc(Cl)ccc13)C2=O)c1ccncc1`, the selectivity ratio in series [1] was determined as 627. In the series on Plasmodium falciparum [2], this compound yielded an IC50 of 26.3 nM.

The values above are taken from ChEMBL document CHEMBL4819108, “A trio of quinoline-isoniazid-phthalimide with promising antiplasmodial potential: Synthesis, in-vitro evaluation and heme-polymerization inhibition studies” (Bioorg Med Chem, 2021).
